Measured values as given in ChEMBL document CHEMBL3758074, “Structure-activity relationship study of 4-(thiazol-5-yl)benzoic acid derivatives as potent protein kinase CK2 inhibitors” (Bioorg Med Chem, 2016).
Values after ≈ are worked out from the molar mass of the structure shown.

How the values were obtained:
A549 = experiment: Cytotoxicity against human A549 cells after 72 hrs by MTS assay; format: functional; conditions: A549, 72 h
[1] = Thermodynamic solubility of compound in 67 mM phosphate buffer at pH 7.4 after 24 hrs by HPLC analysis; format: physicochemical; conditions: read-out: Therm_solubility
[2] = biological target: Casein kinase II subunit alpha (Homo sapiens, UniProt P68400); experiment: Inhibition of GST-tagged human CK2alpha (1 to 391 residues) using CK2tide as substrate incubated for 1 hr by off-chip mobility shift assay
[3] = biological target: Casein kinase II subunit alpha' (Homo sapiens, UniProt P19784); experiment: Inhibition of GST-tagged human CK2alpha' (1 to 350 residues) using CK2tide as substrate incubated for 1 hr by off-chip mobility shift assay

SMILES	CC50 (A549) [µM]	solubility thermodynamic at 24 h [1] [µg/mL]	IC50 [2] [µM]	IC50 [3] [µM]
COc1ccc(C(=O)Nc2ncc(-c3ccc(C(=O)O)cc3OCc3ccccc3Br)s2)cc1	1.5	–	–	–
COc1ccc(C(=O)Nc2ncc(-c3ccc(C(=O)O)cc3OCc3ccccc3OC)s2)cc1	2	1.4 (≈ 2.85 µM)	–	–
COc1ccc(C(=O)Nc2ncc(-c3ccc(C(=O)O)cn3)s2)cc1	> 30	90 (≈ 253 µM)	–	–
COc1ccc(C(=O)Nc2ncc(-c3ccc(C(=O)O)cc3OCc3ccccc3F)s2)cc1	3.3	–	–	–
COc1ccc(C(=O)Nc2ncc(-c3ccc(C(=O)O)nc3)s2)cc1	> 30	14 (≈ 39.4 µM)	–	–
COc1ccc(C(=O)Nc2ncc(-c3ccc(C(=O)O)cc3OCc3cccc(Cl)c3)s2)cc1	18.7	–	–	–
COc1ccc(C(=O)Nc2ncc(-c3ccc(C(=O)O)cc3Oc3ccccc3)s2)cc1	4.7	–	–	–
COc1ccc(C(=O)Nc2ncc(-c3ccc(C(=O)O)c4ccccc34)s2)cc1	> 30	–	–	–
COc1ccc(C(=O)Nc2ncc(-c3ccc(C(=O)O)cc3OCc3ccccc3)s2)cc1	1.5	–	–	–
COc1ccc(C(=O)Nc2ncc(-c3ccc(C(=O)O)cc3OCCc3ccccc3)s2)cc1	3.6	–	–	–
COc1ccc(C(=O)Nc2ncc(-c3ccc(C(=O)O)cc3OCc3ccc(Cl)cc3)s2)cc1	2.5	–	–	–
COc1ccc(C(=O)Nc2ncc(-c3ccc(C(=O)O)cc3OCc3ccccc3Cl)s2)cc1	1.6	–	–	–
COc1ccc(C(=O)Nc2ncc(-c3ccc(C(=O)O)cc3OCc3ccccn3)s2)cc1	> 30	–	–	–
COc1ccc(C(=O)Nc2ncc(-c3ccc(C(=O)O)nn3)s2)cc1	> 30	1020 (≈ 2880 µM)	–	–
COc1ccc(C(=O)Nc2ncc(-c3ccc(C(=O)O)cc3)s2)cc1	8.5	2.7 (≈ 7.62 µM)	0.02	0.011
COc1ccc(C(=O)Nc2ncc(-c3ccc(C(=O)O)cc3OCc3ccccc3C#N)s2)cc1	> 30	–	–	–
O=C(O)c1ccc2c(c1)nc(Nc1cccc(Cl)c1)c1ccncc12 [SILMITASERTIB]	9.9	57 (≈ 163 µM)	–	–
COc1ccc(C(=O)Nc2ncc(-c3ccc(C(=O)O)cc3COc3ccccc3)s2)cc1	21.9	–	–	–
